From paper PMC12764492, “Therapeutic 6-thio-deoxyguanosine inhibits telomere elongation in cancer cells by inducing a non-productive stalled telomerase complex” (Nature Communications, 2025)

Target: T1, DNA polymerase δ (Pol δ) holoenzyme (Homo sapiens, UniProt P28340)
T1 construct: gene POLD1; recombinant human Pol δ heterotetramer; with other Pol δ subunits (heterotetramer); PCNA
Assay: primer extension by reconstituted Pol δ holoenzyme with 6-thio-dGTP ([…]) replacing dGTP; inserted, not significantly inhibitory
Type: biochemical

T1 sequence (P28340 whole entry): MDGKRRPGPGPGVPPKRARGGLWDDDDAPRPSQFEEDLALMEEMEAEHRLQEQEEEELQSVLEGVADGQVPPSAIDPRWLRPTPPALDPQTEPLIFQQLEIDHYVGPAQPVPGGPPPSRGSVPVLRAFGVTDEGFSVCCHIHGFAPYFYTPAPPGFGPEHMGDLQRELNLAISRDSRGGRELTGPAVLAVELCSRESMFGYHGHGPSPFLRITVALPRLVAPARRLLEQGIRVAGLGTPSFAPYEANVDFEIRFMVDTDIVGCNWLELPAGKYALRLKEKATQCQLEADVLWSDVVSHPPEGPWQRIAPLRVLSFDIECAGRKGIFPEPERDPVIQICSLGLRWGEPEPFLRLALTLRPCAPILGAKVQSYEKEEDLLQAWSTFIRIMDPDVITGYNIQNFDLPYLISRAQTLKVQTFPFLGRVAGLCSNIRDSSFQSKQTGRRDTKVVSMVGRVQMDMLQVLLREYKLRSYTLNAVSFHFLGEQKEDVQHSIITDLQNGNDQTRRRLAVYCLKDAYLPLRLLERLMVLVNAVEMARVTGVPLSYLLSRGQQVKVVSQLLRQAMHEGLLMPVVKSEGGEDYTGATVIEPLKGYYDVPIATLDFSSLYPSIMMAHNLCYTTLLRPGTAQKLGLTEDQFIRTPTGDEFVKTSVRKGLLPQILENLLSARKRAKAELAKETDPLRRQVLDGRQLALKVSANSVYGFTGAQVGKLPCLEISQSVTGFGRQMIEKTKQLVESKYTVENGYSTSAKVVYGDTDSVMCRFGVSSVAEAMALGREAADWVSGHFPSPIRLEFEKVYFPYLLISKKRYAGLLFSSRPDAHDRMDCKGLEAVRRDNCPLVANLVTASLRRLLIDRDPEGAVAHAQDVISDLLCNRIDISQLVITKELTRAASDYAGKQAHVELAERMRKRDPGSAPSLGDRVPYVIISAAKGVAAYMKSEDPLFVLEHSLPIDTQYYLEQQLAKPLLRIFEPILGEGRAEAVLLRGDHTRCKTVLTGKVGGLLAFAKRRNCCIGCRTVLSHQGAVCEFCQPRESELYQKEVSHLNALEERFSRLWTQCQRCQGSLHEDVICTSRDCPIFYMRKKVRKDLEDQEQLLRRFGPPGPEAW
T1 sequence (P49005 whole entry partner): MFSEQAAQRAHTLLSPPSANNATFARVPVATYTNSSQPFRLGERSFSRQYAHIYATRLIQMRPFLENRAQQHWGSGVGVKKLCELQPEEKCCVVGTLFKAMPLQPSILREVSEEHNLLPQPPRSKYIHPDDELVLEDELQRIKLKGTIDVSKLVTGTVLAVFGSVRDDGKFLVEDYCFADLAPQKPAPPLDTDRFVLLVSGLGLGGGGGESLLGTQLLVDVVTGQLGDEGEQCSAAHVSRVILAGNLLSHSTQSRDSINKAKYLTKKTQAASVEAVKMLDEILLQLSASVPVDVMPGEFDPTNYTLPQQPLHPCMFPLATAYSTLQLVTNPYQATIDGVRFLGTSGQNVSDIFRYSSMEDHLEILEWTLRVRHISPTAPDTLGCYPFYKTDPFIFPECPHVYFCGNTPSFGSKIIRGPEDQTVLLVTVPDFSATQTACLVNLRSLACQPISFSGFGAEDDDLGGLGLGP
T1 sequence (Q15054 2-466 partner): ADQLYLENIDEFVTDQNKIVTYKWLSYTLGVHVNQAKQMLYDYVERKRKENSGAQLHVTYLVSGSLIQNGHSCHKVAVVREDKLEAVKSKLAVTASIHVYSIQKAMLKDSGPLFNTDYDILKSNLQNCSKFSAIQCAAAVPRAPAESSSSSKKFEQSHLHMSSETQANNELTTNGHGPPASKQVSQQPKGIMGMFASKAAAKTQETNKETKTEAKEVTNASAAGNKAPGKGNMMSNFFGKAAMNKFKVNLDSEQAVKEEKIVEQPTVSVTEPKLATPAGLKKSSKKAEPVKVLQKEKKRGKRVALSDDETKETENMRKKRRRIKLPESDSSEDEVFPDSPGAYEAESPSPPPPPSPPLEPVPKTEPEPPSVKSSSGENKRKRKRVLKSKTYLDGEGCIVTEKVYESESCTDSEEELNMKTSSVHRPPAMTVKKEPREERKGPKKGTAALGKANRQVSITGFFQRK
T1 sequence (Q9HCU8 whole entry partner): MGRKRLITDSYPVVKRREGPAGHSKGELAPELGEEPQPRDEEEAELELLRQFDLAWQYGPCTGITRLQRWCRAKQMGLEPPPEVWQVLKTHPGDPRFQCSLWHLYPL
T1 sequence (P12004 whole entry partner): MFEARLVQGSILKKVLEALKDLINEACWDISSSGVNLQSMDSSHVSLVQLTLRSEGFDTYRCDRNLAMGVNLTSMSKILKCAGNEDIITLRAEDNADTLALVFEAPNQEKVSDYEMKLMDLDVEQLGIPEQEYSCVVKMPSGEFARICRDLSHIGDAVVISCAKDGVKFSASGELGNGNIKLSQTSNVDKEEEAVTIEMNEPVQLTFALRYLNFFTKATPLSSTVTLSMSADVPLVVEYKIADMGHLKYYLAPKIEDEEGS

Structure (SMILES): Nc1nc2c(ncn2[C@H]2C[C@H](O)[C@@H](COP(=O)(O)OP(=O)(O)OP(=O)(O)O)O2)c(=S)[nH]1 [6-thio-dGTP]
- primer extension by reconstituted Pol δ holoenzyme with 6-thio-dGTP (9.7 μM) rep: The substitution of 6-thio-dGTP for dGTP did not significantly alter primer extension
